{
  "source": "patent EP0915099A1",
  "about": "“Antiparallel oligopeptides and hydrophobically complementary oligopeptides, matrices containing them and use thereof in the purification and detection of subtypes of alpha interferon” (ALFA WASSERMANN S.p.A., priority 1997, dated 1999)",
  "test_system": "subtypes of Hu-IFNα",
  "assay": "affinity of the peptides in solution and bound to solid supports (affinity chromatography)",
  "type": "binding, human",
  "details": "both in solution and bound to solid supports",
  "description": "Therefore they can be used, when bound to suitable matrices on solid supports, in affinity chromatography for the separation and purification of the subtype Hu-IFNα8. Moreover, when conveniently functionalized, they can be used for the specific detection of Hu-IFNα8 in analytical techniques like the detection of compounds splitted in SDS-PAGE and transferred on nitrocellulose sheets (SDS-PAGE-blotting) or the detection of compounds immobilized on solid supports (enzyme linked immuno sorbent assay or ELISA). Therefore the matrices on solid supports for the affinity chromatography to which the IFNα-AP, IFNω-AP, IFNα-IC and IFNω-IC oligopeptides are linked and the use thereof in the separation and purification of the Hu-IFNα8 protein are a further object of the invention.\nEach of the peptides from number 1 to number 6, at the end of the synthesis, has been linked to a solid support useful for affinity chromatographies, preferably made by a polymeric resin based on acrylamide or agarose, and each matrix functionalized in this way has been packed on a chromatographic column on which, at a neutral pH, a mixture of Hu-IFNα having a specific activity between 1 e 100 x 10^5 international units for each milligram of total proteins (IU/mg) and with a Hu-IFNα concentration between 0.1 and 5 x 10^6 IU has been pressed through. […]",
  "data": [
    {"substance": "H-Gly-Ser-His-Asp-Phe-Cys-Ser-Asp-Asn-Leu-OH (H-GSHDFCSDNL-OH) [IFNα-AP]", "values": [
      {"measurement": "affinity for subtypes of Hu-IFNα", "result": "only for some subtypes of Hu-IFNα, mainly for the subtype IFNα8"}
    ]},
    {"substance": "H-Gly-Phe-His-Asp-Phe-His-Ser-Asp-Asn-Phe-OH (H-GFHDFHSDNF-OH) [IFNω-AP]", "values": [
      {"measurement": "affinity for subtypes of Hu-IFNα", "result": "only for some subtypes of Hu-IFNα, mainly for the subtype IFNα8"}
    ]}
  ]
}
